EP0103381B1, “Substituted anthra(1,9-cd)pyrazol-6(2H)-ones” (WARNER-LAMBERT COMPANY, priority 1982, dated 1984)
Where a name gives a salt, the structure may show the parent alone. Read-outs that look alike come from different tables or passages of the source.

How the values were obtained:
[1] = tested on: HCT-8 (human colon adenocarcinoma) cells; assay: in vitro activity against human colon adenocarcinoma (HCT-8), cell count; type: cell-based
Description: HCT-8 (human colon adenocarcinoma) cells are trypsinized using Trypsin-EDTA. A single cell suspension is achieved by passing the cells through a 26 gauge needle with a 20 cc syringe. A cell suspension is prepared using RPMI 1640 growth medium (available from Gibco Laboratories) +10% fetal calf serum +50 µg/ml garamycin with a cell concentration of approximately 30,000 cells/ml. The cell suspension is dispensed in Linbro 24-well plates; 1 ml/well. The plates are incubated for approximately 48 hrs at 37°C in a 5% C02 atmosphere. At this time test compounds are added in the appropriate concentration. Five µl of the 200 µg/ml stock solution is added to each well in a primary test. Ten pl of the appropriate dilution is added to each well for a titration test. The plates are reincubated an additional 60-65 hrs at 37°C in a 5% C02 atmosphere. The test is read by lysing the cells using a mix of cationic surfactant, glacial acetic acid and sodium chloride. […] of the lysed cell suspension from each well is added to 8 ml of diluent. Each sample is read with a Coulter counter (ZBI model). The activity of each sample is measured as a percentage of the controls and the data is reported as ID50, that is the molar quantity of drug required to kill 50% of the tumor cells.

Bacillus subtilis = assay: agar plate paper-disc inhibition zone screening; type: cell-based; conditions: read-out: Inhibition Zone Diameter mm (Dose mg/ml) B. Subtilis; for zone of inhibition at 100 µg/mL: Dose 0.1 mg/ml; for zone of inhibition at 1000 µg/mL: Dose 1.0 mg/ml; for zone of inhibition at 3000 µg/mL: Dose 3.0 mg/ml
Procedure, shortened: (§1)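 Read-out: diameter (mm) of the inhibition zone around 12.7 mm paper discs after overnight (18-20 h) incubation at 37°C. Discs carried compound at 3,000-10 mcg/ml in alcohol, DMSO or DMF, final solvent <10%. Seeded agar trays used saline-suspended cells adjusted to 20-35% transmittancy.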

Escherichia coli = assay: agar plate paper-disc inhibition zone screening; type: cell-based; conditions: read-out: Inhibition Zone Diameter mm (Dose mg/ml) E. Coli; for zone of inhibition at 1000 µg/mL: Dose 1.0 mg/ml; for zone of inhibition at 3000 µg/mL: Dose 3.0 mg/ml
Procedure, shortened: as §1

Streptococcus faecalis = assay: agar plate paper-disc inhibition zone screening; type: cell-based; conditions: Enterococcus faecalis, read-out: Inhibition Zone Diameter mm (Dose mg/ml) S. Faecalis; for zone of inhibition at 500 µg/mL: Dose 0.5 mg/ml; for zone of inhibition at 1000 µg/mL: Dose 1.0 mg/ml; for zone of inhibition at 3000 µg/mL: Dose 3.0 mg/ml
Procedure, shortened: as §1

Aerobacter aerogenes = assay: agar plate paper-disc inhibition zone screening; type: cell-based; conditions: Klebsiella aerogenes, read-out: Inhibition Zone Diameter mm (Dose mg/ml) A. Aerogenes; for zone of inhibition at 500 µg/mL: Dose 0.5 mg/ml; for zone of inhibition at 100 µg/mL: Dose 0.1 mg/ml
Procedure, shortened: as §1

Penicillium avellaneum = assay: agar plate paper-disc inhibition zone screening; type: cell-based; conditions: Hamigera avellanea, read-out: Inhibition Zone Diameter mm (Dose mg/ml) P. Avellaneum; for zone of inhibition at 3000 µg/mL: Dose 3.0 mg/ml; for zone of inhibition at 1000 µg/mL: Dose 1.0 mg/ml
Procedure, shortened: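 Mycelia and spores from a six-day 28°C agar culture, suspended in saline with 0.05% Tween 80 at 20% transmittancy, were seeded into molten agar trays. Compounds at 3,000, 1,000, 500, 100 and 10 mcg/ml (solvent <10%) were applied on 12.7 mm paper discs. After at least 20-24 h incubation, inhibition zone diameter was measured in mm.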

[2] = tested on: lymphocytic leukemia P388; assay: in vivo lymphocytic leukemia P388 test; parameters: species or system mice; conditions: Mus musculus, P388, ip, 720 h, two single doses four days apart, read-out: T/C × 100 (Percent); for response vs control in vivo at 3.12 mg/kg: P388, Dose 3.12 mg/kg intraperitoneally; for response vs control in vivo at 12.5 mg/kg: P388, Dose 12.5 mg/kg intraperitoneally; for response vs control in vivo at 25 mg/kg: P388, Dose 25 mg/kg intraperitoneally; for response vs control in vivo at 50 mg/kg: P388, Dose 50 mg/kg intraperitoneally
Procedure, shortened: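 CD2F mice (6–7 per group) were inoculated intraperitoneally with P388 leukemia ascitic cells. Compounds were then given i.p. as two doses four days apart at various levels. Survival over 30 days was expressed as treated/control time ratio, efficacy criterion T/C×100 >125%.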

[3] = HCT-8 human colon adenocarcinoma cells, 60-65 hrs incubation with compound, Coulter counter cell count as percentage of controls, read-out: ID50 (the source's name)
[4] = Homo sapiens, HCT-8 cells, 60-65 hrs with compound, molar quantity of drug required to kill 50% of the tumor cells, read-out: ID50 Molar

CN1CCN(c2ccc3c4c(nn3CCNCCO)-c3c(O)ccc(O)c3C(=O)c24)CC1
IC50 [1, 3]: 540 nM

NCCNc1ccc2c3c(nn2CCN)-c2c(O)ccc(O)c2C(=O)c13 [7,10-(OH)2; (CH2)2NH2·2HCl; NH(CH2)2NH2]
IC50 [1, 3]: 910 nM

CN(C)CCn1nc2c3c(c(NCCN)ccc31)C(=O)c1c(O)ccc(O)c1-2 [7,10-(OH)2; (CH2)2NMe2·2HCl; NH(CH2)2NH2]
IC50 [1, 3]: 140 nM

CN(C)CCn1nc2c3c(c(NCCCN)ccc31)C(=O)c1c(O)ccc(O)c1-2 [7,10-(OH)2; (CH2)2NMe2·2HCl; NH(CH2)3NH2]
IC50 [1, 3]: 1100 nM

CN(C)CCNc1ccc2c3c(nn2CCO)-c2c(O)ccc(O)c2C(=O)c13 [7,10-(OH)2; (CH2)2OH·HCl; NH(CH2)2NMe2]
IC50 [1, 3]: 170 nM

CN(C)CCCn1nc2c3c(c(NCCCN)ccc31)C(=O)c1c(O)ccc(O)c1-2 [7,10-(OH)2; (CH2)3NMe2·2HCl; NH(CH2)3NH2]
IC50 [1, 3]: 350 nM

CCN(CC)CCNc1ccc2c3c(nn2CCN(CC)CC)-c2ccccc2C(=O)c13 [Example 1]
IC50 [1, 4]: 140 nM | zone of inhibition at 100 µg/mL (Bacillus subtilis): 15 mm | zone of inhibition at 1000 µg/mL (Escherichia coli): 15 mm | zone of inhibition at 500 µg/mL (Streptococcus faecalis): 14 mm | zone of inhibition at 500 µg/mL (Aerobacter aerogenes): 19 mm | zone of inhibition at 3000 µg/mL (Penicillium avellaneum): 19 mm

CCN(CC)CCn1nc2c3c(c(NCCN)ccc31)C(=O)c1ccccc1-2 [Example 3, 5-[(2-Aminoethyl)amino]-2-[2-(diethylamino)ethyl]anthra[1,9-cd]pyrazol-6(2H)-one]
IC50 [1, 4]: 52 nM | zone of inhibition at 100 µg/mL (Bacillus subtilis): 15 mm | zone of inhibition at 1000 µg/mL (Escherichia coli): 14 mm | zone of inhibition at 500 µg/mL (Streptococcus faecalis): 17 mm | zone of inhibition at 500 µg/mL (Aerobacter aerogenes): 14 mm | zone of inhibition at 3000 µg/mL (Penicillium avellaneum): 16 mm

CCN(CC)CCCNc1ccc2c3c(nn2CCN(CC)CC)-c2ccccc2C(=O)c13 [Example 5, 2-[2-(Diethylamino)ethyl]-5-[[3-(diethylamino)propyl]amino]anthra[1,9-cd]pyrazol-6(2H)-one]
IC50 [1, 4]: 180 nM | zone of inhibition at 1000 µg/mL (Bacillus subtilis): 25 mm | zone of inhibition at 3000 µg/mL (Escherichia coli): 15 mm | zone of inhibition at 1000 µg/mL (Streptococcus faecalis): 14 mm | zone of inhibition at 100 µg/mL (Aerobacter aerogenes): 20 mm | zone of inhibition at 3000 µg/mL (Penicillium avellaneum): 15 mm

CCN(CC)CCCCCCCNc1ccc2c3c(nn2CCN(CC)CC)-c2ccccc2C(=O)c13 [Example 6]
IC50 [1, 4]: 2200 nM | zone of inhibition at 500 µg/mL (Bacillus subtilis; Dose 0.5 mg/ml): 17 mm | zone of inhibition at 1000 µg/mL (Escherichia coli): 14 mm | zone of inhibition at 3000 µg/mL (Streptococcus faecalis): 14 mm | zone of inhibition at 3000 µg/mL (Aerobacter aerogenes; Dose 3.0 mg/ml): 0 mm | zone of inhibition at 1000 µg/mL (Penicillium avellaneum): 14 mm

CCN(CC)CCCCNc1ccc2c3c(nn2CCN(CC)CC)-c2ccccc2C(=O)c13 [Example 7]
IC50 [1, 4]: 220 nM | zone of inhibition at 1000 µg/mL (Bacillus subtilis): 17 mm | zone of inhibition at 3000 µg/mL (Escherichia coli): 15 mm | zone of inhibition at 1000 µg/mL (Streptococcus faecalis): 14 mm | zone of inhibition at 100 µg/mL (Aerobacter aerogenes): 16 mm | zone of inhibition at 3000 µg/mL (Penicillium avellaneum): 14 mm

CCN(CC)CCn1nc2c3c(c(NCCN4CCNCC4)ccc31)C(=O)c1ccccc1-2 [Example 9, 2-(2-(Diethylamino)ethyl]-5-[[2-(1-piperazinyl)ethyl]amino]anthra[1,9-cd]pyrazol-6(2H)-one]
IC50 [1, 4]: 380 nM | zone of inhibition at 1000 µg/mL (Bacillus subtilis): 24 mm | zone of inhibition at 3000 µg/mL (Escherichia coli): 0 mm | zone of inhibition at 3000 µg/mL (Streptococcus faecalis): 14 mm | zone of inhibition at 100 µg/mL (Aerobacter aerogenes): 19 mm | zone of inhibition at 1000 µg/mL (Penicillium avellaneum): 0 mm

CCN(CC)CCNc1ccc2c3c(nn2C)-c2ccccc2C(=O)c13 [Example 10, 5-[[2-[Diethylamino)ethyl]amino]-2-methylanthra[1,9-cd]pyrazol-6(2H)-one]
IC50 [1, 4]: 410 nM | zone of inhibition at 100 µg/mL (Bacillus subtilis): 15 mm | zone of inhibition at 3000 µg/mL (Escherichia coli): 15 mm | zone of inhibition at 1000 µg/mL (Streptococcus faecalis): 16 mm | zone of inhibition at 500 µg/mL (Aerobacter aerogenes): 17 mm | zone of inhibition at 500 µg/mL (Penicillium avellaneum; Dose 0.5 mg/ml): 16 mm

Cn1nc2c3c(c(NCCNCCO)ccc31)C(=O)c1ccccc1-2 [Example 11, 5-[[2-[(2-Hydroxyethyl)amino]ethyl]amino]-2-methylanthra[1,9-cd]pyrazol-6(2H)-one]
IC50 [1, 4]: 400 nM | zone of inhibition at 100 µg/mL (Bacillus subtilis): 14 mm | zone of inhibition at 1000 µg/mL (Escherichia coli): 14 mm | zone of inhibition at 1000 µg/mL (Streptococcus faecalis): 14 mm | zone of inhibition at 500 µg/mL (Aerobacter aerogenes): 17 mm | zone of inhibition at 3000 µg/mL (Penicillium avellaneum): 0 mm

Cn1nc2c3c(c(NCCNCCO)ccc31)C(=O)c1c(O)ccc(O)c1-2 [Example 41, 7,10-Dihydroxy-5-[[2-[(2-hydroxyethyl)amino]ethyl]amino]-2-methylanthra[1,9-cd]pyrazol-6(2H)-one]
IC50 [1, 4]: 790 nM | response vs control in vivo at 3.12 mg/kg [2]: 138% | response vs control in vivo at 12.5 mg/kg [2]: 140% | response vs control in vivo at 25 mg/kg [2]: 150% | response vs control in vivo at 50 mg/kg [2]: 162% | response vs control in vivo at 100 mg/kg ([2]; P388, Dose 100 mg/kg intraperitoneally): 174%

NCCn1nc2c3c(c(NCCNCCO)ccc31)C(=O)c1c(O)ccc(O)c1-2 [Example 71, 2-(2-Aminoethyl)-7,10-dihydroxy-5-[[2-[(2-hydroxyethyl)amino]ethyl]amino]anthra[1,9-cd]pyrazol-6(2H)-one]
IC50 [1, 3]: 1700 nM | response vs control in vivo at 1.56 mg/kg ([2]; P388, Dose 1.56 mg/kg intraperitoneally): 153% | response vs control in vivo at 3.12 mg/kg [2]: 160% | response vs control in vivo at 6.25 mg/kg ([2]; P388, Dose 6.25 mg/kg intraperitoneally): 163% | response vs control in vivo at 12.5 mg/kg [2]: 182% | response vs control in vivo at 25 mg/kg [2]: 257%

CN(C)CCNCCNc1ccc2c3c(nn2CCN)-c2c(O)ccc(O)c2C(=O)c13 [Example 74, 2-[2-Aminoethyl)-5-[[2-[[2-(dimethylamino)ethyl]amino]ethyl]amino]-7,10-dihydroxyanthra[1,9-cd]pyrazol-6(2H)-one]
IC50 [1, 3]: 1200 nM | zone of inhibition at 3000 µg/mL (Bacillus subtilis): 16 mm | zone of inhibition at 3000 µg/mL (Streptococcus faecalis): 0 mm | zone of inhibition at 3000 µg/mL (Penicillium avellaneum): 0 mm | response vs control in vivo at 12.5 mg/kg [2]: 186% | response vs control in vivo at 25 mg/kg [2]: 192% | response vs control in vivo at 50 mg/kg [2]: 220%

NCCCn1nc2c3c(c(NCCNCCO)ccc31)C(=O)c1c(O)ccc(O)c1-2 [Example 90, 2-(3-Aminopropyl)-7,10-dihydroxy-5-[[2-[(2-hydroxyethyl)amino]ethyl]amino]anthra[1,9-cd]pyrazol-6(2H)-one]
IC50 [1, 3]: 770 nM | zone of inhibition at 3000 µg/mL (Bacillus subtilis): 16 mm | zone of inhibition at 3000 µg/mL (Streptococcus faecalis): 0 mm | zone of inhibition at 3000 µg/mL (Penicillium avellaneum): 0 mm | response vs control in vivo at 25 mg/kg [2]: 285% | response vs control in vivo at 50 mg/kg [2]: 285%

CNCCn1nc2c3c(c(NCCNCCO)ccc31)C(=O)c1c(O)ccc(O)c1-2 [Example 93, 7,10-Dihydroxy-5-[[2-[(2-hydroxyethyl)amino]ethyl]amino]-2-[2-(methylamino)ethyl]anthra[1,9-cd]pyrazol-6(2H)-one]
IC50 [1, 3]: 230 nM | response vs control in vivo at 12.5 mg/kg [2]: 147%
